Source: US11230532B2, “Pyrimidines and variants thereof, and uses therefor” (Afferent Pharmaceuticals Inc., priority 2016, dated 2022)

Key:
[1] = biological target: T1, human P2X2/3 receptor (heteromeric P2X2/3 channels) (Homo sapiens, UniProt P56373+Q9UBL9); experiment: FlexStation calcium fluorescence assay, heteromeric P2X2/3 channels (1321N1-hP2X2/3 cells); format: cell-based; conditions: agonist 3 μM ATP, highest concentration tested 10 μM, read-out: Average pIC50 P2X2/3 (converted)
T1 construct: expressed in transfected cells; host or cells: 1321N1 human astrocytoma cells (1321N1-hP2X2/3)
T1 sequence (P56373 1-397): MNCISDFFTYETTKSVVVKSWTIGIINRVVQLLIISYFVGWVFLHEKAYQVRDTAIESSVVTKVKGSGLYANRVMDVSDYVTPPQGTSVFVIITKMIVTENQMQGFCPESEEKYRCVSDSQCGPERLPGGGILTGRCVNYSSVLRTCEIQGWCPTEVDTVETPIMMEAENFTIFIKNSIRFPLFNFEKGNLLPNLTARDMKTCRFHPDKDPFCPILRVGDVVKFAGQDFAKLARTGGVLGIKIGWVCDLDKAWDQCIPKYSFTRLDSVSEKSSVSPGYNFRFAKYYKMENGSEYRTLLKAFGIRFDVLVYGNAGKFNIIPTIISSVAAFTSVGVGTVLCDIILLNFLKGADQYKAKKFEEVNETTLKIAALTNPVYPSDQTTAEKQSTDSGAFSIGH
T1 sequence (Q9UBL9 1-471): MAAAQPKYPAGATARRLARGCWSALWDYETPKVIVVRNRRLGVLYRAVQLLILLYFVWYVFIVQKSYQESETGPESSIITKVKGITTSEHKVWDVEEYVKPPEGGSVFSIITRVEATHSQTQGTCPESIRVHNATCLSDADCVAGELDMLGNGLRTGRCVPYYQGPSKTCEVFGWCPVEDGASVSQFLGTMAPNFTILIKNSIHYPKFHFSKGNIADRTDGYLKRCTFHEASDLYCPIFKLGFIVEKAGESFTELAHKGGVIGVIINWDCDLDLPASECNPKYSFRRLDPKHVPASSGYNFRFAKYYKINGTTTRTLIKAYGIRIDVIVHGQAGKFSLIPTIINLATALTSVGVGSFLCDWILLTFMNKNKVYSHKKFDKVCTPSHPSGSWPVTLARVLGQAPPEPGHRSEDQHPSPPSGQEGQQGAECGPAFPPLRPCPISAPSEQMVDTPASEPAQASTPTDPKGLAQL
Description: (§1) 1321N1 human astrocytoma and HEK293 human embryonic kidney cells were stably transfected with human P2X2 and P2X3 receptor subunits to form heteromeric P2X2/3 channels and passaged in flasks. Additionally, HEK293 cells were stably transfected with human P2X3 receptor subunits to form homomeric P2X3 channels.
(§2) Approximately 24 hours before the FlexStation calcium fluorescence experiment, cells were released from their flasks, centrifuged and re-suspended in nutrient medium. The cells were aliquoted into black-wall, clear-bottom 96 well plates at a density of 25,000 cells per well and incubated overnight in a humidified, CO2-enriched (5%) atmosphere at 37° C.
(§3) On the day of the experiment, cells were washed with assay buffer (calcium- and magnesium-free Hank's balanced salt solution, 20 mM HEPES, 2 mM CaCl2; AB) and loaded with 4 μM Fluo-4 (P2X2/3) or Calcium 6 (Molecular Devices, according to manufacturer's instructions; P2X3) calcium-sensitive fluorescent dye in 100 μL AB.
(§4) After 1 hour of dye loading at 37° C., 1321N1-hP2X2/3 cells were washed two times with AB and test compound or vehicle added to each well in a total volume of 150 μL AB. HEK-hP2X3 cells were not washed because the Calcium 6 dye kit includes an extracellular dye that quenches unabsorbed Calcium 6 dye; test compound or vehicle were added directly to the assay plates to achieve the appropriate concentration of test compound in a total volume of 150 μL AB.
(§5) After 20 minutes incubation at RT and protected from light, the assay plates were loaded into the FlexStation microplate reader and baseline fluorescence measured with an excitation wavelength of 485 nm and emission wavelength readings centered at 525 nm (515 nm cut off).
(§6) The agonist was dispensed by the FlexStation during fluorescence measurement to construct agonist activation and antagonist inhibition curves. The final agonist concentration for inhibition was 1 μM α,β-meATP for P2X3 and 3 μM ATP for P2X2/3. Peak fluorescence was measured and curves generated using a four parameter nonlinear regression equation.

[2] = biological target: T2, human P2X3 receptor (homomeric P2X3 channels) (Homo sapiens, UniProt P56373); experiment: FlexStation calcium fluorescence assay, homomeric P2X3 channels (HEK-hP2X3 cells); format: cell-based; conditions: for IC50: HEK293 cells stably transfected with human P2X3, agonist 1 μM α,β-meATP, highest concentration tested 10 μM, read-out: Average pIC50 P2X3 (converted); for Selectivity P2X3/P2X2/3: potency ratio P2X3 over P2X2/3 from pIC50s; for Selectivity, X = S: potency ratio P2X3 over P2X2/3
T2 construct: expressed in transfected cells; host or cells: HEK293 human embryonic kidney cells (HEK-hP2X3)
T2 sequence (P56373 1-397): T1 sequence (P56373 1-397)
Description: as §1, §2, §3, §4, §5, §6

## COc1cc(C(C)C)c(Nc2cnc(N)nc2N)cc1Cl [Compound 39]
[1]
  IC50: 5010 nM
[2]
  IC50: 25.1 nM
  Selectivity P2X3/P2X2/3: 208

## COc1nc(C(C)C)c(Oc2cnc(N)nc2N)cc1Cl [Compound 33]
[1]
  IC50: 794 nM
[2]
  IC50: 25.1 nM
  Selectivity P2X3/P2X2/3: 26

## COc1cc(C(C)C)c([S+]([O-])c2cnc(N)nc2N)cc1OC (stereo not drawn) [Comparative Compound 1, reference compound]
[1]
  IC50: > 10000 nM
[2]
  IC50: > 10000 nM

## COc1nc(C(C)C)c(Oc2cnc(N)nc2N)cc1[S+](C)[O-] (stereo not drawn) [Compound 42]
[1]
  IC50: > 10000 nM
[2]
  IC50: 316 nM
  Selectivity P2X3/P2X2/3: >33

## COc1cc(C(C)C)c(Sc2cnc(N)nc2N)cc1S(C)(=O)=O [Compound 2]
[2]
  Selectivity P2X3/P2X2/3: >18

## COc1cc(C(C)C)c(Sc2cnc(N)nc2N)cc1Br [Compound 8]
[2]
  Selectivity P2X3/P2X2/3: >47

## COc1nc(C(C)C)c(Sc2cnc(N)nc2N)cc1Br [Compound 24]
[1]
  IC50: 398 nM
[2]
  IC50: 100 nM
  Selectivity P2X3/P2X2/3: 4

## COc1cc(Nc2cnc(N)nc2N)c(C(C)C)cc1OC [Compound 30]
[1]
  IC50: 1580 nM
[2]
  IC50: 63.1 nM
  Selectivity P2X3/P2X2/3: 28

## C#Cc1cc(Oc2cnc(N)nc2N)c(C(C)C)nc1OC [Compound 19]
[2]
  Selectivity P2X3/P2X2/3: 28

## COc1cc(C(C)C)c(Sc2cnc(N)nc2N)cc1C [Compound 7]
[2]
  Selectivity P2X3/P2X2/3: >34

## C#Cc1cc(Sc2cnc(N)nc2N)c(C(C)C)nc1OC [Compound 29]
[1]
  IC50: 200 nM
[2]
  IC50: 50.1 nM
  Selectivity P2X3/P2X2/3: 3.9

## COc1nc(C(C)C)c(Nc2cnc(N)nc2N)cc1C(F)(F)F [Compound 35]
[1]
  IC50: 7940 nM
[2]
  IC50: 39.8 nM
  Selectivity P2X3/P2X2/3: 198

## COc1cc(Oc2cnc(N)nc2N)c(C(C)C)nc1OC [Compound 13]
[2]
  Selectivity P2X3/P2X2/3: 5.2

## COc1cc(Sc2cnc(N)nc2N)c(C(C)C)cc1OC [A, X = S]
[2]
  Selectivity, X = S: >100

## COc1cc(C(C)C)c(Sc2cnc(N)nc2N)cc1I [B, X = S]
[2]
  Selectivity, X = S: 48

## COc1cc(Nc2cnc(N)nc2N)c(C(C)C)nc1OC [Compound 44]
[1]
  IC50: 2000 nM
[2]
  IC50: 10 nM
  Selectivity P2X3/P2X2/3: 225

## COc1nc(C(C)C)c(Oc2cnc(N)nc2N)cc1C#N [Compound 17]
[2]
  Selectivity P2X3/P2X2/3: >10

## COc1nc(C(C)C)c(Sc2cnc(N)nc2N)cc1Cl [Compound 38]
[1]
  IC50: > 10000 nM
[2]
  IC50: 200 nM
  Selectivity P2X3/P2X2/3: >48

## CCc1cc(OC)c(I)cc1Sc1cnc(N)nc1N [Compound 21]
[1]
  IC50: > 10000 nM
[2]
  IC50: 398 nM
  Selectivity P2X3/P2X2/3: >24

## COc1cc(C(C)C)c(Sc2cnc(N)nc2N)cc1C(=O)O [Compound 12]
[2]
  Selectivity P2X3/P2X2/3: >2

## COc1nc(C(C)C)c(Sc2cnc(N)nc2N)cc1C#N [Compound 26]
[1]
  IC50: > 10000 nM
[2]
  IC50: 7940 nM
  Selectivity P2X3/P2X2/3: >1

## COc1nc(C(C)C)c(Sc2cnc(N)nc2N)cc1C(F)(F)F [Compound 34]
[1]
  IC50: 6310 nM
[2]
  IC50: 794 nM
  Selectivity P2X3/P2X2/3: 8.3

## COc1cc(C(C)C)c(Nc2cnc(N)nc2N)cc1S(C)(=O)=O [Compound 37]
[1]
  IC50: > 10000 nM
[2]
  IC50: 126 nM
  Selectivity P2X3/P2X2/3: >73

## COc1ccc(Sc2cnc(N)nc2N)c(C(C)C)n1 [Compound 23]
[1]
  IC50: > 10000 nM
[2]
  IC50: 3980 nM
  Selectivity P2X3/P2X2/3: >3

## C#Cc1cc(Sc2cnc(N)nc2N)c(C(C)C)cc1OC [Compound 5]
[2]
  Selectivity P2X3/P2X2/3: 97

## COc1cc(C(C)C)c(Sc2cnc(N)nc2N)cc1I [Compound 4]
[2]
  Selectivity P2X3/P2X2/3: 48

## COc1cc(C(C)C)c(Sc2cnc(N)nc2N)cc1-c1nnn[nH]1 [Compound 11]
[2]
  Selectivity P2X3/P2X2/3: >58

## COc1nc(C(C)C)c(Oc2cnc(N)nc2N)cc1S(N)(=O)=O [Compound 20]
[2]
  Selectivity P2X3/P2X2/3: 19

## COc1nc(C(C)C)c(Oc2cnc(N)nc2N)cc1SC [Compound 41]
[1]
  IC50: 501 nM
[2]
  IC50: 12.6 nM
  Selectivity P2X3/P2X2/3: 41

## COc1cc(C(C)C)c(Sc2cnc(N)nc2N)cc1Cl [D, X = S]
[2]
  Selectivity, X = S: >50

## COc1nc(C(C)C)c(Sc2cnc(N)nc2N)cc1S(N)(=O)=O [Compound 27]
[1]
  IC50: 631 nM
[2]
  IC50: 79.4 nM
  Selectivity P2X3/P2X2/3: 7.3

## COc1nc(C(C)C)c(Nc2cnc(N)nc2N)cc1S(C)(=O)=O [Compound 36]
[1]
  IC50: > 10000 nM
[2]
  IC50: 25.1 nM
  Selectivity P2X3/P2X2/3: >370

## COc1nc(C(C)C)c(Oc2cnc(N)nc2N)nc1C(F)(F)F [Compound 46]
[1]
  IC50: 1000 nM
[2]
  IC50: 100 nM
  Selectivity P2X3/P2X2/3: 10

## COc1ccc(Oc2cnc(N)nc2N)c(C(C)C)n1 [Compound 14]
[2]
  Selectivity P2X3/P2X2/3: >7.1

## COc1nc(C(C)C)c(Sc2cnc(N)nc2N)cc1SC(F)(F)F [Compound 31]
[1]
  IC50: > 10000 nM
[2]
  IC50: 3980 nM
  Selectivity P2X3/P2X2/3: >2.5

## COc1nc(C(C)C)c(Sc2cnc(N)nc2N)cc1S(C)(=O)=O [Compound 25]
[1]
  IC50: > 10000 nM
[2]
  IC50: 200 nM
  Selectivity P2X3/P2X2/3: >52

## CC#Cc1cc(Sc2cnc(N)nc2N)c(C(C)C)nc1OC [Compound 28]
[1]
  IC50: 6310 nM
[2]
  IC50: 794 nM
  Selectivity P2X3/P2X2/3: 7.2

## CCc1cc(OC)c(S(C)(=O)=O)cc1Sc1cnc(N)nc1N [Compound 22]
[1]
  IC50: > 10000 nM
[2]
  IC50: 3980 nM
  Selectivity P2X3/P2X2/3: >3

## COc1cc(C(C)C)c(Sc2cnc(N)nc2N)cc1Cl [Compound 9]
[2]
  Selectivity P2X3/P2X2/3: >56

## COc1cc(C(C)C)c(Sc2cnc(N)nc2N)cc1S(N)(=O)=O [Compound 3]
[2]
  Selectivity P2X3/P2X2/3: >67

## COc1nc(C(C)C)c(Oc2cnc(N)nc2N)nc1N(C)C [Compound 45]
[1]
  IC50: > 10000 nM
[2]
  IC50: 1580 nM
  Selectivity P2X3/P2X2/3: >6.0

## COc1nc(C(C)C)c(Nc2cnc(N)nc2N)cc1Cl [Compound 32]
[1]
  IC50: 398 nM
[2]
  IC50: 10 nM
  Selectivity P2X3/P2X2/3: 34

## COc1cc(C(C)C)c(Sc2cnc(N)nc2N)cc1S(C)(=O)=O [C, X = S]
[2]
  Selectivity, X = S: >18

## COc1cc(C(C)C)c(S(=O)(=O)c2cnc(N)nc2N)cc1OC [Comparative Compound 2, reference compound]
[1]
  IC50: > 10000 nM
[2]
  IC50: > 10000 nM

## COc1cc(C(C)C)c(Nc2cnc(N)nc2N)cc1C(F)(F)F [Compound 40]
[1]
  IC50: > 10000 nM
[2]
  IC50: 79.4 nM
  Selectivity P2X3/P2X2/3: >123

## CC#Cc1cc(Sc2cnc(N)nc2N)c(C(C)C)cc1OC [Compound 6]
[2]
  Selectivity P2X3/P2X2/3: >13

## COc1nc(C(C)C)c(Oc2cnc(N)nc2N)cc1SC(F)(F)F [Compound 47]
[1]
  IC50: 1260 nM
[2]
  IC50: 631 nM
  Selectivity P2X3/P2X2/3: 2.1

## COc1nc(C(C)C)c(Oc2cnc(N)nc2N)cc1S(C)(=O)=O [Compound 16]
[2]
  Selectivity P2X3/P2X2/3: >145

## COc1nc(C(C)C)c(Oc2cnc(N)nc2N)cc1S(C)(=N)=O (stereo not drawn) [Compound 43]
[1]
  IC50: > 10000 nM
[2]
  IC50: 3160 nM
  Selectivity P2X3/P2X2/3: >3.4

## COc1nc(C(C)C)c(Oc2cnc(N)nc2N)cc1C(F)(F)F [Compound 18]
[2]
  Selectivity P2X3/P2X2/3: 23

## COc1cc(Sc2cnc(N)nc2N)c(C(C)C)cc1OC [Compound 1]
[2]
  Selectivity, X = S: greater than 100
  Selectivity P2X3/P2X2/3: >100
